Assay results published in PubChem BioAssay AID1918938 (Molecular Pharmacology Branch, DTP, NCI, 2023).

Test system: 556581-035-R-J1-PDC complex spheroid viability
Test: Anticancer human tumor 556581-035-R-J1-PDC patient-derived ovarian carcinoma cell line growth inhibition
Details: for IC50: curve of first compound; for viability, T/C: stronger effect = lower value; active means viability on the fitted dose curve at most 10% of control; inactive means the rest
In short: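 Drug combinations with the LSD1 inhibitor iadademstat tested on tumor cells co-cultured as spheroids with endothelial cells and mesenchymal stem cells. Concentrations descended in half-log increments from clinical Cmax or 10 microM.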
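Further: spheroids exposed to agents for seven days.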
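Wherever viability, T/C is given: 100% = DMSO vehicle control wells.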

Cn1ncnc1C1c2n[nH]c(=O)c3cc(F)cc(c23)NC1c1ccc(F)cc1 (stereo not given) + NC1CCC(NC2CC2c2ccccc2)CC1
> 100 nM: IC50 (second compound 0.1 µM) | IC50 (second compound 0.316 µM) | IC50 (second compound 1 µM) | IC50 (second compound 3.16 µM) | IC50 (second compound 10 µM)
inactive: viability, T/C (second compound 0.1 µM, first compound 0.000316 µM) 97% | viability, T/C (second compound 0.1 µM, first compound 0.001 µM) 105% | viability, T/C (second compound 0.1 µM, first compound 0.00316 µM) 92.3% | viability, T/C (second compound 0.1 µM, first compound 0.01 µM) 91.2% | viability, T/C (second compound 0.1 µM, first compound 0.0316 µM) 94% | viability, T/C (second compound 0.1 µM, first compound 0.1 µM) 85.4% | viability, T/C (second compound 0.316 µM, first compound 0.000316 µM) 100% | viability, T/C (second compound 0.316 µM, first compound 0.001 µM) 94.7% | viability, T/C (second compound 0.316 µM, first compound 0.00316 µM) 99.6% | viability, T/C (second compound 0.316 µM, first compound 0.01 µM) 91.6% | viability, T/C (second compound 0.316 µM, first compound 0.0316 µM) 87.4% | viability, T/C (second compound 0.316 µM, first compound 0.1 µM) 91.9% | viability, T/C (second compound 1 µM, first compound 0.000316 µM) 91% | viability, T/C (second compound 1 µM, first compound 0.001 µM) 92.2% | viability, T/C (second compound 1 µM, first compound 0.00316 µM) 94.1% | viability, T/C (second compound 1 µM, first compound 0.01 µM) 101% | viability, T/C (second compound 1 µM, first compound 0.0316 µM) 80.6% | viability, T/C (second compound 1 µM, first compound 0.1 µM) 92.1% | viability, T/C (second compound 3.16 µM, first compound 0.000316 µM) 87.1% | viability, T/C (second compound 3.16 µM, first compound 0.001 µM) 87.2% | viability, T/C (second compound 3.16 µM, first compound 0.00316 µM) 89.3% | viability, T/C (second compound 3.16 µM, first compound 0.01 µM) 79.5% | viability, T/C (second compound 3.16 µM, first compound 0.0316 µM) 84.9% | viability, T/C (second compound 3.16 µM, first compound 0.1 µM) 80.8% | viability, T/C (second compound 10 µM, first compound 0.000316 µM) 73.9% | viability, T/C (second compound 10 µM, first compound 0.001 µM) 77.8% | viability, T/C (second compound 10 µM, first compound 0.00316 µM) 76.1% | viability, T/C (second compound 10 µM, first compound 0.01 µM) 80.8% | viability, T/C (second compound 10 µM, first compound 0.0316 µM) 73.5% | viability, T/C (second compound 10 µM, first compound 0.1 µM) 71.5%

NS(=O)(=O)OCC1CC(n2ccc3c(NC4CCc5ccccc54)ncnc32)CC1O (stereo not given) + NC1CCC(NC2CC2c2ccccc2)CC1
> 3000 nM: IC50 (second compound 0.1 µM) | IC50 (second compound 0.316 µM)
545 nM: IC50 (second compound 10 µM)
2370 nM: IC50 (second compound 1 µM)
inactive: viability, T/C (second compound 0.1 µM, first compound 0.00949 µM) 117% | viability, T/C (second compound 0.1 µM, first compound 0.03 µM) 122% | viability, T/C (second compound 0.1 µM, first compound 0.0949 µM) 124% | viability, T/C (second compound 0.1 µM, first compound 0.3 µM) 91.3% | viability, T/C (second compound 0.1 µM, first compound 0.949 µM) 86.6% | viability, T/C (second compound 0.1 µM, first compound 3 µM) 58.4% | viability, T/C (second compound 0.316 µM, first compound 0.00949 µM) 119% | viability, T/C (second compound 0.316 µM, first compound 0.03 µM) 112% | viability, T/C (second compound 0.316 µM, first compound 0.0949 µM) 123% | viability, T/C (second compound 0.316 µM, first compound 0.3 µM) 99.8% | viability, T/C (second compound 0.316 µM, first compound 0.949 µM) 85.7% | viability, T/C (second compound 0.316 µM, first compound 3 µM) 50.4% | viability, T/C (second compound 1 µM, first compound 0.00949 µM) 99% | viability, T/C (second compound 1 µM, first compound 0.03 µM) 115% | viability, T/C (second compound 1 µM, first compound 0.0949 µM) 121% | viability, T/C (second compound 1 µM, first compound 0.3 µM) 92.2% | viability, T/C (second compound 1 µM, first compound 0.949 µM) 74.3% | viability, T/C (second compound 1 µM, first compound 3 µM) 43.7% | viability, T/C (second compound 3.16 µM, first compound 0.00949 µM) 103% | viability, T/C (second compound 3.16 µM, first compound 0.03 µM) 106% | viability, T/C (second compound 3.16 µM, first compound 0.0949 µM) 110% | viability, T/C (second compound 3.16 µM, first compound 0.3 µM) 84.8% | viability, T/C (second compound 3.16 µM, first compound 0.949 µM) 65.9% | viability, T/C (second compound 3.16 µM, first compound 3 µM) 28.8% | viability, T/C (second compound 10 µM, first compound 0.00949 µM) 86.7% | viability, T/C (second compound 10 µM, first compound 0.03 µM) 86.1% | viability, T/C (second compound 10 µM, first compound 0.0949 µM) 83.4% | viability, T/C (second compound 10 µM, first compound 0.3 µM) 62.1% | viability, T/C (second compound 10 µM, first compound 0.949 µM) 37.9% | viability, T/C (second compound 10 µM, first compound 3 µM) 15.2%
1500 nM: IC50 (second compound 3.16 µM)
